Peptide text beside a SMILES is read from it.
Key:
scPCP-treated mice [1] = experiment: Novel object recognition (NOR) in subchronic PCP (scPCP) mice; type: in vivo, Male C57BL/6J mice
Description: Animals: Male C57BL/6J mice 22-25 g (21/2 to 3 month old) were used is these studies. Drugs: Rapastinel was obtained from SAI Life Sciences (India). Rapastinel, PCP, and ketamine were dissolved in 0.9% sterile saline (Sal). PCP and ketamine were administered intraperitoneally (ip), at a volume of 10 mL/kg body weight. Rapastinel was given subcutaneously (subcu), and rapamycin was given intracerebroventricularly (icy). Drug Treatments: Male C57BL/6J mice were randomly assigned to treatment groups of 10 per group. To develop the cognitive deficit, groups of 10 mice were treated with PCP (10 mg/kg i.p., twice a day for 7 days) followed by a 7-day washout period. Following the washout period, the subchronic PCP mice were tested to determine that an NOR deficit had been established. See Rajagopal et al 3,4. See FIG. 7, for treatment schedules. Behavior, in vivo Microdialysis (MD) and ICV Procedures—The procedures have been described in detail in References 3,10,11,12,13. See FIG. 7. for pictorial representations of drug treatment protocols. Rapastinel's ability to restore episodic memory (NOR) and cognitive flexibility (RL), like its antidepressant action in rodents, is mTOR dependent as indicated by blockade by ICV rapamycin. […] Increase in cortical DA efflux, in transient and subchronic rescue by rapastinel, may be important for triggering neuroplastic changes in AMPAR modulation of the activity of principal neurons in mPFC and HIP.

scPCP-treated mice [2] = experiment: Reversal learning (RL) task in subchronic PCP mice; type: in vivo, Male C57BL/6J mice
Description: (§1) Animals: Male C57BL/6J mice 22-25 g (21/2 to 3 month old) were used is these studies. Drugs: Rapastinel was obtained from SAI Life Sciences (India). Rapastinel, PCP, and ketamine were dissolved in 0.9% sterile saline (Sal). PCP and ketamine were administered intraperitoneally (ip), at a volume of 10 mL/kg body weight. Rapastinel was given subcutaneously (subcu), and rapamycin was given intracerebroventricularly (icy). Drug Treatments: Male C57BL/6J mice were randomly assigned to treatment groups of 10 per group. To develop the cognitive deficit, groups of 10 mice were treated with PCP (10 mg/kg i.p., twice a day for 7 days) followed by a 7-day washout period. Following the washout period, the subchronic PCP mice were tested to determine that an NOR deficit had been established. See Rajagopal et al 3,4. See FIG. 7, for treatment schedules. Behavior, in vivo Microdialysis (MD) and ICV Procedures—The procedures have been described in detail in References 3,10,11,12,13. See FIG. 7. for pictorial representations of drug treatment protocols. Rapastinel's ability to restore episodic memory (NOR) and cognitive flexibility (RL), like its antidepressant action in rodents, is mTOR dependent as indicated by blockade by ICV rapamycin. […]

C57BL/6J mice = experiment: In vivo microdialysis of neurotransmitter efflux in mPFC and HIP; set-up: species or system Male C57BL/6J mice; details: rapastinel 1 mg/kg subcu, ketamine 30 mg/kg
Description: as §1

[3] = PCP 10 mg/kg i.p. twice a day for 7 days, then 7-day washout

C[C@@H](O)[C@H](N)C(=O)N1CCC[C@H]1C(=O)N1CCC[C@H]1C(=O)N[C@H](C(N)=O)[C@@H](C)O [rapastinel] (H-TPPT-NH2)
Duration of rescue of NOR deficit after subchronic rapastinel, 5 days (scPCP-treated mice [1]; scPCP mice, 1 mg/kg sc, b.i.d. for 5 days): at least 10 weeks
NOR deficit (DI), acute rapastinel (scPCP-treated mice [1]; scPCP mice, 1 mg/kg subcu, 30 min before AT): rescued NOR deficit
Reversal of scPCP-induced NOR deficit, 5 day vs 3 day treatment (scPCP-treated mice [1]; scPCP mice, 1 mg/kg subcu, b.i.d. for 5 days): longer compared to 3 day treatment
NOR after a single acute dose once the subchronic effect had ended (scPCP-treated mice [1]; scPCP mice, single dose 1 mg/kg sc, 30 min prior to AT, week 10 (or week 11)): restored NOR
RL deficit (percent correct responses), acute rapastinel (scPCP-treated mice [2]; scPCP mice, 1 mg/kg sc, 30 min before reversal phase of the RL task): rescued RL deficit
Neurotransmitter efflux in mPFC (C57BL/6J mice): small selective increase in DA efflux

CNC1(c2ccccc2Cl)CCCCC1=O (stereo not drawn) [Ketamine, ketamine, reference compound]
Neurotransmitter efflux in mPFC (C57BL/6J mice): very large increases in the efflux of ACh, DA, 5-HT, DOPAC, 5-HIAA, and glutamate, and serine

c1ccc(C2(N3CCCCC3)CCCCC2)cc1 [PCP, reference compound]
DI in NOR vs vehicle-treated mice (scPCP-treated mice [1]; [3]): reduced DI
Percent correct responses in RL vs veh-treated mice (scPCP-treated mice [2]; [3]): reduced percent correct responses

Reference: US20190351006A1, “METHODS OF ADMINISTRATION OF NMDA RECEPTOR AGONISTS” (Naurex Inc., priority 2017, published 2019)
